{"source": "patent US9938256B2", "about": "“Annelated benzamides” (Boehringer Ingelheim International GmbH, priority 2015, dated 2018)", "note": "pIC50: −log10 of the molar value."}
{"target": "T1, ENaC (Epithelial Sodium Channel) (Mus musculus, UniProt Q61180+Q9WU38+Q9WU39)", "T1 sequence (Q61180 1-699)": "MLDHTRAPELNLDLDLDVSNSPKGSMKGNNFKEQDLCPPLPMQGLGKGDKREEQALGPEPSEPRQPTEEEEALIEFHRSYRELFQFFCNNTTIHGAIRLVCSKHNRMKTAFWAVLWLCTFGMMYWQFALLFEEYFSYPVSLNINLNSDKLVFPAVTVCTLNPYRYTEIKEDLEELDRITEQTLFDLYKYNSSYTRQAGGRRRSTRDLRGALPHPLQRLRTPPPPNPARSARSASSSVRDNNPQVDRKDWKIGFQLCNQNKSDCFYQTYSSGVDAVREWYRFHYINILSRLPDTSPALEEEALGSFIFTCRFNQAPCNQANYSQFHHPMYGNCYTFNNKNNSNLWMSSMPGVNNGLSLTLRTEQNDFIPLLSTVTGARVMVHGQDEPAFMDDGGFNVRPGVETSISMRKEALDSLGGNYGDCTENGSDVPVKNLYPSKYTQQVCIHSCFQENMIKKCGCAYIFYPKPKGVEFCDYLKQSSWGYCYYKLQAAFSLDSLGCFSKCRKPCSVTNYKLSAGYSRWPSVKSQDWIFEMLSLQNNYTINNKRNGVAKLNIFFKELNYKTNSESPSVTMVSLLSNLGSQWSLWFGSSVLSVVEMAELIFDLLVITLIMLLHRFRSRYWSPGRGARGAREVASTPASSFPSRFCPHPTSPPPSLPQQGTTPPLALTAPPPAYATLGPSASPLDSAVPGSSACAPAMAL", "T1 sequence (Q9WU38 1-638)": "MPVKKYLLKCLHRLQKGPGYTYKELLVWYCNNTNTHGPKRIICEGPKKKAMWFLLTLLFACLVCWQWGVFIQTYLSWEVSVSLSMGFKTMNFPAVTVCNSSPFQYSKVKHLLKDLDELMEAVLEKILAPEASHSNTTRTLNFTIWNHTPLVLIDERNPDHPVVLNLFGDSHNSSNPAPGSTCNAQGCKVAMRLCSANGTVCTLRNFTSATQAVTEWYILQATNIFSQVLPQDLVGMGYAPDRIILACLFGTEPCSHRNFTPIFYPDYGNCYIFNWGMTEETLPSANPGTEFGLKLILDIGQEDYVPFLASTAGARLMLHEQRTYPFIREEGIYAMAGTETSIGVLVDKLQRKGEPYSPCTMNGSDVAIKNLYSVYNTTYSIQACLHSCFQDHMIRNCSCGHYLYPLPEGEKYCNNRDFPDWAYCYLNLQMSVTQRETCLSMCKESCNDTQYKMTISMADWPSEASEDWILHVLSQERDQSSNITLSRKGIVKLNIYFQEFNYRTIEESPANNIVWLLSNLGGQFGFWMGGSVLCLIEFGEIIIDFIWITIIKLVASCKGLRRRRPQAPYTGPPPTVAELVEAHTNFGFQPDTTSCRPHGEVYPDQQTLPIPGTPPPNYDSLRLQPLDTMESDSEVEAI", "T1 sequence (Q9WU39 1-655)": "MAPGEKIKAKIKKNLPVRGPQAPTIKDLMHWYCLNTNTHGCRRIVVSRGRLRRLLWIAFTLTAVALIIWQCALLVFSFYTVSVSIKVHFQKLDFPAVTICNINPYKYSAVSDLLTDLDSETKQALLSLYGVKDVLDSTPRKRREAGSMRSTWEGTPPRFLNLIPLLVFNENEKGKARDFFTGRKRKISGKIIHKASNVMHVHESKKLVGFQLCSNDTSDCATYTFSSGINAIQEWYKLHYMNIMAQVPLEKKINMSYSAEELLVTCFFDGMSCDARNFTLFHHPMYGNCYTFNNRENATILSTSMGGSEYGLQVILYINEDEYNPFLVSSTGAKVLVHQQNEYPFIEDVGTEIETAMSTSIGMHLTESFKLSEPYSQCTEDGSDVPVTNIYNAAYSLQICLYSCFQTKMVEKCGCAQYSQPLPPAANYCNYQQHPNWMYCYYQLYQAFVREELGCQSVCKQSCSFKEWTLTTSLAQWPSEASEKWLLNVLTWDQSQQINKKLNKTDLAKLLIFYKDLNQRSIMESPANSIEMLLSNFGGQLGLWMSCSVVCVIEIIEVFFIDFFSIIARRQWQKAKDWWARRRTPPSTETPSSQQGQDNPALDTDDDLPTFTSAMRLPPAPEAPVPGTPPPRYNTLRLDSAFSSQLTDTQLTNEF", "test": "Ussing Chamber assay (amiloride sensitive short circuit current in M-1 cells)", "type": "cell-based", "conditions": "Mouse kidney M-1 cells, apical administration, 37° C.", "method": "The IC50 values of the example compounds given above were determined in the Ussing Chamber assay. Ussing Chamber: Mouse kidney M-1 cells were cultivated in DMEM containing 5% FCS and 5 μM dexamethasone for 10 to 12 days on polyester transwell filters. Filters were inserted into a teflon-coated well-plate which fit into the ussing chamber system. Prior to measurement the medium of M-1 cells was replaced with Caco-2 transport buffer (Invitrogen, Germany). During measurements, the Ussing chamber temperature was kept at 37° C. Short circuit currents (I_sc) were measured in the voltage-clamp mode with the software package Lab View for data acquisition and analysis. The transepithelial electrical resistance (TEER) was determined by the application of voltage steps of ±5 mV every 5 sec. Compounds were administered at a final concentration of 3 μM or at increasing concentrations (1-3-10 μM) to the apical solution. At the end of each experiment the amiloride sensitive I_SC was measured by adding 3 μM amiloride to the apical compartment. Results are expressed as inhibition in percent of the amiloride effect or as IC50. With the example compounds given above, the following IC50 values were determined in the Ussing Chamber assay: […]"}
{"smiles": "CCn1c(CNC(=O)c2nc(Cl)cnc2N)[n+](CC)c2ccc(C(=O)N3CCNCC3)cc21", "note": "[Example 1.01]", "pIC50": 8.15}
{"smiles": "CCn1c(CNC(=O)c2nc(Cl)cnc2N)[n+](CC)c2ccc(C(=O)N(C)CCCNC)cc21", "note": "[Example 1.02]", "pIC50": 8.40}
{"smiles": "CCn1c(CNC(=O)c2nc(Cl)cnc2N)[n+](CC)c2ccc(C(=O)NCCN3CCOCC3)cc21", "note": "[Example 1.03]", "pIC50": 8.15}
{"smiles": "CCn1c(CNC(=O)c2nc(Cl)cnc2N)[n+](CC)c2ccc(C(=O)NCCCNC)cc21", "note": "[Example 1.04]", "pIC50": 8.52}
{"smiles": "CCn1c(CNC(=O)c2nc(Cl)cnc2N)[n+](CC)c2ccc(C(=O)N(CCN)CC(C)C)cc21", "note": "[Example 1.05]", "pIC50": 8.10}
{"smiles": "CCn1c(CNC(=O)c2nc(Cl)cnc2N)[n+](CC)c2ccc(C(=O)NCCN(C)C)cc21", "note": "[Example 1.06]", "pIC50": 8.40}
{"smiles": "CCn1c(CNC(=O)c2nc(Cl)cnc2N)[n+](CC)c2ccc(C(=O)N3CCN(C)CC3)cc21", "note": "[Example 1.07]", "pIC50": 8.30}
{"smiles": "CCn1c(CNC(=O)c2nc(Cl)cnc2N)[n+](CC)c2ccc(C(=O)NCCNC)cc21", "note": "[Example 1.08]", "pIC50": 8.22}
{"smiles": "CCn1c(CNC(=O)c2nc(Cl)cnc2N)[n+](CC)c2ccc(C(=O)NC[C@H](O)[C@@H](O)[C@H](O)[C@H](O)CO)cc21", "note": "[Example 1.09]", "pIC50": 8.22}
{"smiles": "CCn1c(CNC(=O)c2nc(Cl)cnc2N)[n+](CC)c2ccc(C(=O)NCCCN)cc21", "note": "[Example 1.10]", "pIC50": 8.40}
{"smiles": "CCn1c(CNC(=O)c2nc(Cl)cnc2N)[n+](CC)c2ccc(C(=O)N3CCC(NC(=O)CN(C)C)CC3)cc21", "note": "[Example 1.11]", "pIC50": 8.30}
{"smiles": "CCn1c(CNC(=O)c2nc(Cl)cnc2N)[n+](CC)c2cc(C(=O)N3CCC(N(C)C)CC3)ccc21", "note": "[Example 1.12]", "pIC50": 8.40}
{"smiles": "CCn1c(CNC(=O)c2nc(Cl)cnc2N)[n+](CC)c2ccc(C(=O)N(CCN)CCN)cc21", "note": "[Example 1.13]", "pIC50": 8.15}
{"smiles": "CCn1c(CNC(=O)c2nc(Cl)cnc2N)[n+](CC)c2ccc(C(=O)N(C)CCNC)cc21", "note": "[Example 1.14]", "pIC50": 8.40}
{"smiles": "CCn1c(CNC(=O)c2nc(Cl)cnc2N)[n+](CC)c2ccc(C(=O)N(C)CCN3CCOCC3)cc21", "note": "[Example 1.15]", "pIC50": 8.22}
{"smiles": "CCn1c(CNC(=O)c2nc(Cl)cnc2N)[n+](CC)c2cc(C(=O)N3CCN(CP(C)(C)=O)CC3)ccc21", "note": "[Example 1.16]", "pIC50": 7.92}
{"smiles": "CCn1c(CNC(=O)c2nc(Cl)cnc2N)[n+](CC)c2ccc(C(=O)N(C)CCCN(C)C)cc21", "note": "[Example 1.17]", "pIC50": 8.15}
{"smiles": "CCCCN1CCN(C(=O)c2ccc3c(c2)[n+](CC)c(CNC(=O)c2nc(Cl)cnc2N)n3CC)CC1", "note": "[Example 1.18]", "pIC50": 8.30}
{"smiles": "CCn1c(CNC(=O)c2nc(Cl)cnc2N)[n+](CC)c2ccc(C(=O)N3CCCNCC3)cc21", "note": "[Example 1.19]", "pIC50": 8.40}
{"smiles": "CCn1c(CNC(=O)c2nc(Cl)cnc2N)[n+](CC)c2ccc(C(=O)N(C)CCN(C)C)cc21", "note": "[Example 1.20]", "pIC50": 8.22}
{"smiles": "CCn1c(CNC(=O)c2nc(Cl)cnc2N)[n+](CC)c2ccc(C(=O)N3CCC(NC(=O)CN)CC3)cc21", "note": "[Example 1.21]", "pIC50": 8.30}
{"smiles": "CCn1c(CNC(=O)c2nc(Cl)cnc2N)[n+](CC)c2cc(C(=O)NCCOCP(C)(C)=O)ccc21", "note": "[Example 1.22]", "pIC50": 7.89}
